Bridge positions count the residues as written; N and C are the ends. Peptide text beside a SMILES is read from it.
Molecular target: T1, IL17-RE-IL-17C (Homo sapiens, UniProt Q8NFR9+Q9P0M4)
T1 sequence (Q9P0M4 whole entry): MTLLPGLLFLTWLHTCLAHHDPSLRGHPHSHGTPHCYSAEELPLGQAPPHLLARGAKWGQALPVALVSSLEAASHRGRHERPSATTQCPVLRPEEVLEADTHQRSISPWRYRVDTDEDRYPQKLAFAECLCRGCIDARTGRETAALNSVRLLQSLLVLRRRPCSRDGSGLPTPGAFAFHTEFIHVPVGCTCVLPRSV
T1 sequence (Q8NFR9 whole entry): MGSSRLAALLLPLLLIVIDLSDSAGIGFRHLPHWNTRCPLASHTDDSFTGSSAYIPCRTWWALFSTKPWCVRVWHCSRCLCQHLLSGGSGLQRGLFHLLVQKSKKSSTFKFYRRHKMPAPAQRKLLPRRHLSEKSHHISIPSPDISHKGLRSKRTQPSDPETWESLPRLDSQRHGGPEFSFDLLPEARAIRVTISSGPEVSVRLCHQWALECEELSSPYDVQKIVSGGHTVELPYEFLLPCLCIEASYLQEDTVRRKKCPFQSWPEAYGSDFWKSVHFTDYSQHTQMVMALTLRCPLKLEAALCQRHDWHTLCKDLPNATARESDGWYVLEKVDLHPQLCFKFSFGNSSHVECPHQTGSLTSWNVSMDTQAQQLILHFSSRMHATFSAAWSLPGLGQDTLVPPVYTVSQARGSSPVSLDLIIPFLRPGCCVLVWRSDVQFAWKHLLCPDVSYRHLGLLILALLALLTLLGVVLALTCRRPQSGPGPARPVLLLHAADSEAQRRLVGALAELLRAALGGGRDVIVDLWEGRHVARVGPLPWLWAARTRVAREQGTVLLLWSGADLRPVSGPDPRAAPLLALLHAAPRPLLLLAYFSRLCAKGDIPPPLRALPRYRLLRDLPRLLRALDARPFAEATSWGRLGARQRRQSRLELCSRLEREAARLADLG
Experiment: Inhibition of interleukin-17RE/biotinylated IL-17C protein-protein interaction (unknown origin) incubated for 1 hrs by competitive ELISA
Assay type: protein-complex assay

| IC50 [nM] | SMILES |
| --- | --- |
| 5.6 | CC[C@@H](C)[C@@H]1NC(=O)[C@H](CCCNC(=N)N)NC(=O)[C@H](Cc2ccc(O)cc2)NC(=O)[C@H](Cc2ccc(O)cc2)NC(=O)[C@H](CCC(N)=O)NC(=O)[C@H](Cc2c[nH]cn2)NC(=O)[C@H](Cc2ccc(O)cc2)NC(=O)CSC[C@@H](C(=O)NCC(N)=O)NC(=O)CNC(=O)[C@H](CC(C)C)NC(=O)[C@H](CC(N)=O)NC(=O)CNC(=O)[C@H](Cc2ccc(O)cc2)NC(=O)[C@H](CC(C)C)NC1=O |
| 116 | CC[C@H](C)[C@@H]1NC(=O)[C@H](CCCCN)NC(=O)[C@H](Cc2ccc(O)cc2)NC(=O)[C@H](Cc2ccc(O)cc2)NC(=O)[C@H](Cc2c[nH]cn2)NC(=O)[C@H](Cc2c[nH]cn2)NC(=O)[C@H](Cc2ccc(O)cc2)NC(=O)CSC[C@@H](C(=O)NCC(N)=O)NC(=O)CNC(=O)[C@H](CC(C)C)NC(=O)[C@H](CCC(=O)O)NC(=O)CNC(=O)[C@H](Cc2ccc(O)cc2)NC(=O)[C@H](CC(C)C)NC1=O ({CH2CO}-YHHYYKILYGELGCG-NH2; thioether N-14) |
| 47 | CC[C@H](C)[C@@H]1NC(=O)[C@H](CCCNC(=N)N)NC(=O)[C@H](Cc2ccc(O)cc2)NC(=O)[C@H](Cc2ccc(O)cc2)NC(=O)[C@H](Cc2c[nH]cn2)NC(=O)[C@H](Cc2c[nH]cn2)NC(=O)[C@H](Cc2ccc(O)cc2)NC(=O)CSC[C@@H](C(=O)NCC(N)=O)NC(=O)CNC(=O)[C@H](CC(C)C)NC(=O)[C@H](CC(N)=O)NC(=O)CNC(=O)[C@H](Cc2ccc(O)cc2)NC(=O)[C@H](CC(C)C)NC1=O ({CH2CO}-YHHYYRILYGNLGCG-NH2; thioether N-14) |
| 73 | CC[C@H](C)[C@@H]1NC(=O)[C@H](CCCNC(=N)N)NC(=O)[C@H](Cc2ccc(O)cc2)NC(=O)[C@H](Cc2ccc(O)cc2)NC(=O)[C@H](Cc2c[nH]cn2)NC(=O)[C@H](Cc2c[nH]cn2)NC(=O)[C@H](Cc2ccc(O)cc2)NC(=O)CSC[C@@H](C(=O)NCC(N)=O)NC(=O)CNC(=O)[C@H](CC(C)C)NC(=O)[C@H](CCCCN)NC(=O)CNC(=O)[C@H](Cc2ccc(O)cc2)NC(=O)[C@H](CC(C)C)NC1=O ({CH2CO}-YHHYYRILYGKLGCG-NH2; thioether N-14) |
| 83 | CC[C@H](C)[C@@H]1NC(=O)[C@H](CCCNC(=N)N)NC(=O)[C@H](Cc2ccc(O)cc2)NC(=O)[C@H](Cc2ccc(O)cc2)NC(=O)[C@H](Cc2c[nH]cn2)NC(=O)[C@H](Cc2c[nH]cn2)NC(=O)[C@H](Cc2ccc(O)cc2)NC(=O)CSC[C@@H](C(=O)NCC(N)=O)NC(=O)CNC(=O)[C@H](CC(C)C)NC(=O)[C@H](CC(=O)O)NC(=O)CNC(=O)[C@H](Cc2ccc(O)cc2)NC(=O)[C@H](CC(C)C)NC1=O ({CH2CO}-YHHYYRILYGDLGCG-NH2; thioether N-14) |
| 15 | CC[C@H](C)[C@@H]1NC(=O)[C@H](CCCNC(=N)N)NC(=O)[C@H](Cc2ccc(O)cc2)NC(=O)[C@H](Cc2ccc(O)cc2)NC(=O)[C@H](CCC(N)=O)NC(=O)[C@H](Cc2c[nH]cn2)NC(=O)[C@H](Cc2ccc(O)cc2)NC(=O)CSC[C@@H](C(=O)NCC(N)=O)NC(=O)CNC(=O)[C@H](CC(C)C)NC(=O)[C@H](CCC(=O)O)NC(=O)CNC(=O)[C@H](Cc2ccc(O)cc2)NC(=O)[C@H](CC(C)C)NC1=O ({CH2CO}-YHQYYRILYGELGCG-NH2; thioether N-14) |
| 2360 | CC[C@H](C)[C@@H]1NC(=O)[C@H](CC(N)=O)NC(=O)[C@H](Cc2ccc(O)cc2)NC(=O)[C@H](Cc2ccc(O)cc2)NC(=O)[C@H](Cc2c[nH]cn2)NC(=O)[C@H](Cc2c[nH]cn2)NC(=O)[C@H](Cc2ccc(O)cc2)NC(=O)CSC[C@@H](C(=O)NCC(N)=O)NC(=O)CNC(=O)[C@H](CC(C)C)NC(=O)[C@H](CCC(=O)O)NC(=O)CNC(=O)[C@H](Cc2ccc(O)cc2)NC(=O)[C@H](CC(C)C)NC1=O ({CH2CO}-YHHYYNILYGELGCG-NH2; thioether N-14) |
| 1.7 | CC[C@H](C)[C@@H]1NC(=O)[C@H](Cc2c[nH]cn2)NC(=O)[C@H](Cc2ccc(O)cc2)NC(=O)CSC[C@@H](C(=O)NCC(N)=O)NC(=O)CNC(=O)[C@H](CC(C)C)NC(=O)[C@H](CC(=O)O)NC(=O)CNC(=O)[C@H](Cc2ccc(O)cc2)NC(=O)[C@H](CC(C)C)NC(=O)[C@H](CO)NC(=O)[C@H](CCCNC(=N)N)NC(=O)[C@H](Cc2ccc(O)cc2)NC(=O)[C@H](Cc2ccc(O)cc2)NC1=O ({CH2CO}-YHIYYRSLYGDLGCG-NH2; thioether N-14) |

Continued, compound first:

| SMILES | IC50 [nM] |
| --- | --- |
| CC[C@H](C)[C@@H]1NC(=O)[C@H](CCCNC(=N)N)NC(=O)[C@H](Cc2ccc(O)cc2)NC(=O)[C@H](Cc2ccc(O)cc2)NC(=O)[C@H](CCC(=O)O)NC(=O)[C@H](Cc2c[nH]cn2)NC(=O)[C@H](Cc2ccc(O)cc2)NC(=O)CSC[C@@H](C(=O)NCC(N)=O)NC(=O)CNC(=O)[C@H](CC(C)C)NC(=O)[C@H](CCC(=O)O)NC(=O)CNC(=O)[C@H](Cc2ccc(O)cc2)NC(=O)[C@H](CC(C)C)NC1=O ({CH2CO}-YHEYYRILYGELGCG-NH2; thioether N-14) | 86 |
| CC(C)C[C@@H]1NC(=O)[C@H](CC(=O)O)NC(=O)CNC(=O)[C@H](Cc2ccc(O)cc2)NC(=O)[C@H](CC(C)C)NC(=O)[C@H](CO)NC(=O)[C@H](CCCNC(=N)N)NC(=O)[C@H](Cc2ccc(O)cc2)NC(=O)[C@H](CC(N)=O)NC(=O)[C@H](Cc2c[nH]cn2)NC(=O)[C@H](Cc2c[nH]cn2)NC(=O)[C@H](Cc2ccc(O)cc2)NC(=O)CSC[C@@H](C(=O)NCC(N)=O)NC(=O)CNC1=O ({CH2CO}-YHHNYRSLYGDLGCG-NH2; thioether N-14) | > 30000 |
| CC[C@H](C)[C@@H]1NC(=O)[C@H](CCCNC(=N)N)NC(=O)[C@H](Cc2ccc(O)cc2)NC(=O)[C@H](Cc2ccc(O)cc2)NC(=O)[C@H](CCC(N)=O)NC(=O)[C@H](Cc2c[nH]cn2)NC(=O)[C@H](Cc2ccc(O)cc2)NC(=O)CSC[C@@H](C(=O)NCC(N)=O)NC(=O)[C@H](C(C)C)NC(=O)[C@H](CC(C)C)NC(=O)[C@H](CCC(=O)O)NC(=O)CNC(=O)[C@H](Cc2ccc(O)cc2)NC(=O)[C@H](CC(C)C)NC1=O ({CH2CO}-YHQYYRILYGELVCG-NH2; thioether N-14) | > 30000 |
| CC[C@H](C)[C@@H]1NC(=O)[C@H](Cc2c[nH]cn2)NC(=O)[C@H](Cc2ccc(O)cc2)NC(=O)CSC[C@@H](C(=O)NCC(N)=O)NC(=O)CNC(=O)[C@H](CC(C)C)NC(=O)[C@H](CC(N)=O)NC(=O)CNC(=O)[C@H](Cc2ccc(O)cc2)NC(=O)[C@H](CC(C)C)NC(=O)[C@H](CO)NC(=O)[C@H](C)NC(=O)[C@H](Cc2ccc(O)cc2)NC(=O)[C@H](Cc2ccc(O)cc2)NC1=O ({CH2CO}-YHIYYASLYGNLGCG-NH2; thioether N-14) | 1.4 |
| CC[C@H](C)[C@@H]1NC(=O)[C@H](CCCNC(=N)N)NC(=O)[C@H](Cc2ccc(O)cc2)NC(=O)[C@H](Cc2ccc(O)cc2)NC(=O)[C@H](CCCNC(=N)N)NC(=O)[C@H](Cc2c[nH]cn2)NC(=O)[C@H](Cc2ccc(O)cc2)NC(=O)CSC[C@@H](C(=O)NCC(N)=O)NC(=O)CNC(=O)[C@H](CC(C)C)NC(=O)[C@H](CCC(=O)O)NC(=O)CNC(=O)[C@H](Cc2ccc(O)cc2)NC(=O)[C@H](CC(C)C)NC1=O ({CH2CO}-YHRYYRILYGELGCG-NH2; thioether N-14) | 108 |
| CC[C@H](C)[C@@H]1NC(=O)[C@H](CCCNC(=N)N)NC(=O)[C@H](Cc2ccc(O)cc2)NC(=O)[C@H](Cc2ccc(O)cc2)NC(=O)[C@H](Cc2c[nH]cn2)NC(=O)[C@H](Cc2c[nH]cn2)NC(=O)[C@H](Cc2ccc(O)cc2)NC(=O)CSC[C@@H](C(=O)NCC(N)=O)NC(=O)CNC(=O)[C@H](CC(C)C)NC(=O)[C@H](CCC(=O)O)NC(=O)CNC(=O)[C@H](Cc2ccc(O)cc2)NC(=O)[C@H](Cc2ccccc2)NC1=O ({CH2CO}-YHHYYRIFYGELGCG-NH2; thioether N-14) | 23300 |
| CC(C)C[C@@H]1NC(=O)[C@H](CC(=O)O)NC(=O)CNC(=O)[C@H](Cc2ccc(O)cc2)NC(=O)[C@H](CC(C)C)NC(=O)[C@H](CO)NC(=O)[C@H](CCCNC(=N)N)NC(=O)[C@H](Cc2ccc(O)cc2)NC(=O)[C@H](Cc2ccc(O)cc2)NC(=O)[C@H](Cc2c[nH]cn2)NC(=O)[C@H](CCC(N)=O)NC(=O)[C@H](Cc2ccc(O)cc2)NC(=O)CSC[C@@H](C(=O)NCC(N)=O)NC(=O)CNC1=O ({CH2CO}-YQHYYRSLYGDLGCG-NH2; thioether N-14) | > 30000 |
| CC[C@H](C)[C@@H]1NC(=O)[C@H](CCCNC(=N)N)NC(=O)[C@H](Cc2ccc(O)cc2)NC(=O)[C@H](Cc2ccc(O)cc2)NC(=O)[C@H](Cc2ccc(O)cc2)NC(=O)[C@H](Cc2c[nH]cn2)NC(=O)[C@H](Cc2ccc(O)cc2)NC(=O)CSC[C@@H](C(=O)NCC(N)=O)NC(=O)CNC(=O)[C@H](CC(C)C)NC(=O)[C@H](CCC(=O)O)NC(=O)CNC(=O)[C@H](Cc2ccc(O)cc2)NC(=O)[C@H](CC(C)C)NC1=O ({CH2CO}-YHYYYRILYGELGCG-NH2; thioether N-14) | 119 |

— ChEMBL document CHEMBL5614375, “PepExplainer: An explainable deep learning model for selection-based macrocyclic peptide bioactivity prediction and optimization” (Eur J Med Chem, 2024)
